Assay results: the supplement of paper PMC8617591

Assays:
[1] = system: Mycobacterium tuberculosis Erdman (autoluminescent); test: AUC25, normalised area under dose response up to IC25 (three-drug combination) (fraction (0-1)); higher = more potent at low dose
Experimental: (§1)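 DiaMOND equipotent three-drug combination dose responses (10 doses, 1.5- or 2-fold spacing, centred on IC90) against autoluminescent M. tuberculosis Erdman in 8 in vitro models. Read-out is OD600, or luminescence for the intracellular and dormancy models, normalised to untreated wells. Hill-fit Einf, AUC25 and GRinf are potency metrics; FIC50 and FIC90 are total Loewe fractional inhibitory concentrations as log2 (negative = synergy).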

[2] = system: Mycobacterium tuberculosis Erdman (autoluminescent); test: GRinf, maximum normalised growth rate inhibition (three-drug combination) (unitless (-1 to 1)); higher = less effect (negative = killing)
Experimental: as §1

[3] = system: Mycobacterium tuberculosis Erdman (autoluminescent); test: total FIC50 (Loewe) at 50% inhibition, three-drug combination (log2); higher = more antagonistic
Experimental: as §1

[4] = system: Mycobacterium tuberculosis Erdman (autoluminescent); test: total FIC90 (Loewe) at 90% inhibition, three-drug combination (log2); higher = more antagonistic
Experimental: as §1

[5] = system: Mycobacterium tuberculosis Erdman (autoluminescent); test: Einf, fitted maximum growth inhibition of three-drug combination (fraction); higher = stronger maximal inhibition
Experimental: as §1

NNC(=O)c1ccncc1 [isoniazid] + COc1c(N2C[C@@H]3CCCN[C@@H]3C2)c(F)cc2c(=O)c(C(=O)O)cn(C3CC3)c12 [moxifloxacin] + O=[N+]([O-])c1cn2c(n1)OC[C@@H](OCc1ccc(OC(F)(F)F)cc1)C2 [pretomanid]
Conditions	AUC25, [1]	Einf, [5]	GRinf, [2]	total FIC50, [3]	total FIC90, [4]
in vitro model: acidic pH 5.7, time point: constant (~7 days, model-specific)	0.105	0.752	-0.684	4.5	–
in vitro model: acidic pH 5.7, time point: terminal (~4-5 doublings, model-specific)	0.0907	0.959	-0.532	4.46	4.49
in vitro model: intracellular J774, time point: constant = terminal	–	0.994	-0.481	–	0.579

Conditions	AUC25, [1]	Einf, [5]	GRinf, [2]	total FIC50, [3]	total FIC90, [4]
in vitro model: butyrate, time point: constant (~7 days, model-specific)	0.0536	0.929	-0.0807	2.83	2.02
in vitro model: butyrate, time point: terminal (~4-5 doublings, model-specific)	0.0441	0.974	-0.0869	2.53	2.38
in vitro model: cholesterol 0.05 mM, time point: constant (~7 days, model-specific)	0.105	0.746	-0.26	1.75	–
in vitro model: cholesterol 0.05 mM, time point: terminal (~4-5 doublings, model-specific)	0.0994	0.957	-0.35	8.24	1.68
in vitro model: cholesterol-high 0.2 mM, time point: constant (~7 days, model-specific)	0.0779	0.892	-0.144	0.366	–
in vitro model: cholesterol-high 0.2 mM, time point: terminal (~4-5 doublings, model-specific)	0.0578	0.977	-0.646	0.407	0.342
in vitro model: dormancy (butyrate + nitrate, low O2), time point: constant (~7 days, model-specific)	0.0796	0.873	0.251	2.42	2.29
in vitro model: dormancy (butyrate + nitrate, low O2), time point: terminal (~4-5 doublings, model-specific)	0.0682	0.986	-0.111	2.34	2.6
in vitro model: standard 7H9 glycerol, time point: constant = terminal	0.0818	0.979	-0.202	1.14	0.349
in vitro model: valerate, time point: constant (~7 days, model-specific)	0.107	0.898	-0.0314	2.35	–
in vitro model: valerate, time point: terminal (~4-5 doublings, model-specific)	0.071	0.948	-0.0412	2.43	2.4

COc1nc2ccc(Br)cc2cc1[C@@H](c1ccccc1)[C@@](O)(CCN(C)C)c1cccc2ccccc12 [bedaquiline] + CC(C)/N=c1\cc2n(-c3ccc(Cl)cc3)c3ccccc3nc-2cc1Nc1ccc(Cl)cc1 [clofazimine] + COc1c(N2C[C@@H]3CCCN[C@@H]3C2)c(F)cc2c(=O)c(C(=O)O)cn(C3CC3)c12 [moxifloxacin]
Conditions	AUC25, [1]	Einf, [5]	GRinf, [2]	total FIC50, [3]	total FIC90, [4]
in vitro model: acidic pH 5.7, time point: constant (~7 days, model-specific)	0.0874	0.698	-0.457	1.07	–
in vitro model: acidic pH 5.7, time point: terminal (~4-5 doublings, model-specific)	0.0681	0.957	-0.368	0.792	0.0494
in vitro model: intracellular J774, time point: constant = terminal	–	0.974	-0.345	–	0.0395

Conditions	AUC25, [1]	Einf, [5]	GRinf, [2]	total FIC50, [3]	total FIC90, [4]
in vitro model: butyrate, time point: constant (~7 days, model-specific)	0.0682	0.95	-0.111	-0.0983	-0.596
in vitro model: butyrate, time point: terminal (~4-5 doublings, model-specific)	0.0514	0.979	-0.117	0.0193	-0.388
in vitro model: cholesterol 0.05 mM, time point: constant (~7 days, model-specific)	0.0732	0.724	-0.218	-0.685	–
in vitro model: cholesterol 0.05 mM, time point: terminal (~4-5 doublings, model-specific)	0.0839	0.927	-0.23	0.399	-1.01
in vitro model: cholesterol-high 0.2 mM, time point: constant (~7 days, model-specific)	0.094	0.97	-0.382	-0.248	0.136
in vitro model: cholesterol-high 0.2 mM, time point: terminal (~4-5 doublings, model-specific)	0.0879	1	-0.535	0.0978	-0.0166
in vitro model: dormancy (butyrate + nitrate, low O2), time point: constant (~7 days, model-specific)	0.0734	0.907	0.241	-0.202	-0.9
in vitro model: dormancy (butyrate + nitrate, low O2), time point: terminal (~4-5 doublings, model-specific)	0.0897	0.997	-0.093	-0.168	0.176
in vitro model: standard 7H9 glycerol, time point: constant = terminal	0.0896	0.983	-0.156	-0.176	-0.548
in vitro model: valerate, time point: constant (~7 days, model-specific)	0.121	0.959	-0.201	0.443	–
in vitro model: valerate, time point: terminal (~4-5 doublings, model-specific)	0.0856	0.968	-0.1	0.482	1.71

COc1c(N2C[C@@H]3CCCN[C@@H]3C2)c(F)cc2c(=O)c(C(=O)O)cn(C3CC3)c12 [moxifloxacin] + O=[N+]([O-])c1cn2c(n1)OC[C@@H](OCc1ccc(OC(F)(F)F)cc1)C2 [pretomanid] + CO[C@H]1/C=C/O[C@@]2(C)Oc3c(C)c(O)c4c(O)c(c(/C=N/N5CCN(C6CCCC6)CC5)c(O)c4c3C2=O)NC(=O)/C(C)=C\C=C\[C@H](C)[C@H](O)[C@@H](C)[C@@H](O)[C@@H](C)[C@H](OC(C)=O)[C@@H]1C [rifapentine]
Conditions	AUC25, [1]	Einf, [5]	GRinf, [2]	total FIC50, [3]	total FIC90, [4]
in vitro model: acidic pH 5.7, time point: constant (~7 days, model-specific)	0.0693	0.874	-0.139	0.708	–
in vitro model: acidic pH 5.7, time point: terminal (~4-5 doublings, model-specific)	0.0354	0.971	-0.106	0.952	0.554
in vitro model: intracellular J774, time point: constant = terminal	–	0.964	-0.179	–	0.252

Conditions	AUC25, [1]	Einf, [5]	GRinf, [2]	total FIC50, [3]	total FIC90, [4]
in vitro model: butyrate, time point: constant (~7 days, model-specific)	0.099	0.918	-0.00663	0.501	0.722
in vitro model: butyrate, time point: terminal (~4-5 doublings, model-specific)	0.0765	0.963	-0.00653	0.582	0.784
in vitro model: cholesterol 0.05 mM, time point: constant (~7 days, model-specific)	0.111	0.713	-0.172	0.593	–
in vitro model: cholesterol 0.05 mM, time point: terminal (~4-5 doublings, model-specific)	0.0851	0.89	-0.186	1.01	1.21
in vitro model: cholesterol-high 0.2 mM, time point: constant (~7 days, model-specific)	0.0549	0.877	-0.142	0.887	0.511
in vitro model: cholesterol-high 0.2 mM, time point: terminal (~4-5 doublings, model-specific)	0.04	0.988	-0.672	1.15	0.705
in vitro model: dormancy (butyrate + nitrate, low O2), time point: constant (~7 days, model-specific)	0.0589	0.89	0.213	0.874	0.639
in vitro model: dormancy (butyrate + nitrate, low O2), time point: terminal (~4-5 doublings, model-specific)	0.0483	0.98	-0.128	1.17	1.14
in vitro model: standard 7H9 glycerol, time point: constant = terminal	0.0568	0.928	-0.0296	0.55	0.207
in vitro model: valerate, time point: constant (~7 days, model-specific)	0.116	0.89	0.0703	0.213	–
in vitro model: valerate, time point: terminal (~4-5 doublings, model-specific)	0.0723	0.941	0.0683	0.631	0.879
